Data as given in article PMC8161026, “Synthesis and Anticancer Activity Evaluation of 5-[2-Chloro-3-(4-nitrophenyl)-2-propenylidene]-4-thiazolidinones” (Molecules, 2021).
Read-outs that look alike come from different tables or passages of the source.

How the values were obtained:
CNS Cancer subpanel = experiment: cells; details: for MG_MID, TGI: CNS Cancer panel mean; for GI50 / CC50: Homo sapiens; for GI50: read-out: MG_MID, GI50; for CC50: read-out: MG_MID, LC50
Procedure, shortened: (§1)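 NCI DTP 60-line screen; 10^−4–10^−8 M, 48 h; SRB read-out vs untreated controls. GI50/TGI/LC50 per line; SI = full-panel MG_MID / subpanel MG_MID.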

Melanoma subpanel = experiment: cells; details: for GI50 / CC50: Homo sapiens; for GI50: read-out: MG_MID, GI50; for CC50: read-out: MG_MID, LC50; for MG_MID, TGI: Melanoma panel mean
Procedure, shortened: as §1

RXF 393 [1] = experiment: cells; details: Homo sapiens, RXF 393, 48 h; for CC50: read-out: LC50
RXF 393 [2] = details: RXF 393 (Renal Cancer), 48 h, SRB
T-47D = experiment: cells; details: Homo sapiens, T47D, 48 h; for CC50: read-out: LC50
[3] = tested on: breast cancer lines MCF-7 and MDA-MB-231; experiment: MTT cell viability assay, both breast cancer lines; assay type: cell-based; details: Homo sapiens; MCF-7 and MDA-MB-231, MTT; read-out: GI50 level
Description: In the second stage of the research, Ciminalum-thiazolidinone hybrids were investigated for antitumor activity on the lines of gastric cancer (AGS), human colon cancer (DLD-1), and breast cancers (MCF-7 and MDA-MB-231). The study was performed in the MTT assay according to the method described previously. The studied cancer line was sensitive to the action of the studied compounds that inhibited its growth in micromolar ranges of GI50. The hit compounds that inhibited the growth of all four cancer lines with the lowest GI50 values were [5-[2-chloro-3-(4-nitrophenyl)prop-2-enylidene]-rhodanines 2c, 2d, 2h, and 2i (Table 4).

HCC-2998 = experiment: NCI DTP 60 cell line screen, SRB; details: for TGI: HCC-2998 (Colon Cancer), 48 h, SRB; for GI50 / CC50: Homo sapiens, HCC 2998, 48 h; for CC50: read-out: LC50
MDA-MB-468 = experiment: NCI DTP 60 cell line screen, SRB
[4] = full panel MG_MID / CNS Cancer subpanel MG_MID
[5] = full panel MG_MID / Melanoma subpanel MG_MID

| Compound | MG_MID, TGI (CNS Cancer subpanel) [µM] | GI50 (CNS Cancer subpanel) [µM] | CC50 (CNS Cancer subpanel) [µM] | SI (selectivity index), LC50 (CNS Cancer subpanel; [4]) | GI50 (Melanoma subpanel) [µM] | CC50 (Melanoma subpanel) [µM] | MG_MID, TGI (Melanoma subpanel) [µM] | SI (selectivity index), LC50 (Melanoma subpanel; [5]) | GI50 (RXF 393 [1]) [µM] | CC50 (RXF 393 [1]) [µM] | TGI (RXF 393 [2]) [µM] | GI50 (T-47D) [µM] | CC50 (T-47D) [µM] | SI (selectivity index), GI50 (CNS Cancer subpanel; [4]) | SI (selectivity index), TGI (CNS Cancer subpanel; [4]) | SI (selectivity index), GI50 (Melanoma subpanel; [5]) | SI (selectivity index), TGI (Melanoma subpanel; [5]) | TGI (HCC-2998) [µM] | GI50 (HCC-2998) [µM] | CC50 (HCC-2998) [µM] | other results |
| --- | --- | --- | --- | --- | --- | --- | --- | --- | --- | --- | --- | --- | --- | --- | --- | --- | --- | --- | --- | --- | --- |
| O=C(O)CCN1C(=O)/C(=C/C(Cl)=C/c2ccc([N+](=O)[O-])cc2)SC1=S [Compound 2h, 3-{5-[(Z,2Z)-2-Chloro-3-(4-nitrophenyl)-2-propenylidene]-4-oxo-2-thioxothiazolidin-3-yl}propanoic acid] | 17.7 | 3.13 | 84.9 | 0.77 | 2.45 | 53.1 | 13.9 | 1.22 | 0.105 | 1.73 | 0.341 | 0.363 | > 100 | – | – | – | – | – | – | – | SI (selectivity index), GI50 (CNS Cancer subpanel): 0.50; SI (selectivity index), TGI (CNS Cancer subpanel): 0.75; SI (selectivity index), GI50 (Melanoma subpanel): 0.64; SI (selectivity index), TGI (Melanoma subpanel): 0.96; GI50 [3]: 0.95 to 1.74 µM |
| O=C1/C(=C/C(Cl)=C/c2ccc([N+](=O)[O-])cc2)SC(=S)N1/N=C\C(Cl)=C\c1ccc([N+](=O)[O-])cc1 [Compound 2c, 5-[(Z,2Z)-2-Chloro-3-(4-nitrophenyl)-2-propenylidene]-3-[(Z,2Z)-2-chloro-3-(4-nitrophenyl)-2-propenylideneamino]-2-thioxo-4-thiazolidinone] | 52.1 | 23.4 | 88.6 | 0.92 | 17.7 | 74.3 | 38.0 | 1.10 | – | – | – | 24.5 | > 100 | 0.77 | 0.83 | 1.02 | 1.13 | – | – | – | – |
| O=C(O)C(Cc1ccccc1)N1C(=O)/C(=C/C(Cl)=C/c2ccc([N+](=O)[O-])cc2)SC1=S (stereo not shown) [Compound 2j, 2-{5-[(Z,2Z)-2-Chloro-3-(4-nitrophenyl)-2-propenylidene]-4-oxo-2-thioxothiazolidin-3-yl}-3-phenylpropanoic acid] | – | 2.18 | 7.21 | 10.25 | 2 | 50.6 | 17.9 | 1.46 | 1.54 | 5.93 | 3.02 | 1.5 | > 100 | 1.88 | 11.53 | 2.05 | 2.27 | 3.50 | 1.96 | 6.27 | GI50 (MDA-MB-468; Homo sapiens, MDA-MB-468, 48 h): 1.39 µM; CC50 (MDA-MB-468; Homo sapiens, MDA-MB-468, 48 h, read-out: LC50): 7.71 µM; TGI (MDA-MB-468; MDA-MB-468 (Breast Cancer), 48 h, SRB): 3.28 µM |
| O=C1NC(=S)S/C1=C\C(Cl)=C\c1ccc([N+](=O)[O-])cc1 [Compound 2b, 5-[(Z,2Z)-2-Chloro-3-(4-nitrophenyl)-2-propenylidene]-2-thioxo-4-thiazolidinone] | 22.4 | 6.98 | 45.4 | 0.96 | 5.57 | 36.8 | 16.1 | 1.18 | – | – | – | 3.21 | > 50 | 0.69 | 0.91 | 0.86 | 1.26 | 11.7 | 5.43 | 25 | – |
| O=C1/C(=C/C(Cl)=C/c2ccc([N+](=O)[O-])cc2)SC(=S)N1c1ccc(O)cc1 [Compound 2f, 5-[(Z,2Z)-2-Chloro-3-(4-nitrophenyl)-2-propenylidene]-3-(4-hydroxyphenyl)-2-thioxo-4-thiazolidinone] | 30.6 | 6.72 | 77.4 | 1.04 | 2.63 | 52.3 | 14.4 | 1.54 | – | – | – | 1.55 | > 100 | 0.42 | 1.05 | 1.06 | 2.23 | – | – | – | – |
